This note sets out measurements from patent US10450266B2, “Sulfonate compound, photoacid generator, and resin composition for photolithography” (SAN-APRO LIMITED, priority 2014, dated 2019).

What all share (assay type): physicochemical
Data set [1] can be described thus: Molar extinction coefficient at i-line (365 nm), UV-visible spectrophotometer. As to conditions: 365 nm (i-line), 0.25 mmol/L in acetonitrile, 1 cm cell. As for the experimental part:
The synthesized photoacid generator was diluted to 0.25 mmol/L with acetonitrile, and using an ultraviolet-visible spectrophotometer (UV-2550 available from SHIMADZU CORPORATION), the absorbance in a range of 200 nm to 500 nm was measured with a cell having an optical path length (a cell length) of 1 cm. The molar extinction coefficient of i-line (365 nm) (ε365) was calculated from the following equation. ε365(L·mol^−1·cm^−1)=A365/(0.00025 mol/L×1 cm) [In the equation, A365 represents the absorbance at 365 nm.] <Resist Curing Properties>

A short description of data set [2]: Thermal decomposition temperature (TG/DTA, 2% weight reduction). As to conditions: point of 2% weight reduction, 10° C./minute, nitrogen atmosphere. On the procedure:
The synthesized photoacid generator was measured for the change in weight under a temperature increasing condition of 10° C./minute from 30° C. to 500° C. under a nitrogen atmosphere using a thermal gravimetric/differential thermal analyzer (TG/DTA 6200, available from Seiko Instruments Inc.), and a point where the weight was reduced by 2% was defined as the thermal decomposition temperature.

The nature of another data set: Solvent solubility. The conditions noted are these: for Solvent solubility, PGMEA / Solvent solubility, Butyl acetate / Solvent solubility, Toluene: 25° C. On the procedure:
In a test tube, 0.1 g of the synthesized photoacid generator was placed, and an organic solvent (butyl acetate, toluene or PGMEA) was added thereto in 0.2 g portions under a condition where the temperature was adjusted to 25° C. until the photoacid generator was completely dissolved. In this connection, in the case where the photoacid generator was not completely dissolved even when 20 g of the solvent was added, the photoacid generator was evaluated as one that was not dissolved.

Consider `COc1cc2c(OC)cccc2cc1C(=O)N(C)OS(=O)(=O)c1c(F)c(F)c(F)c(F)c1F` [A-5], for which the Molar extinction coefficient in data set [1] stood at 400 L/mol/cm. In data set [2], the Thermal decomposition temperature was found to be 225 °C. Also, in “Solvent solubility”, the “Solvent solubility, PGMEA” value was determined as 10 wt %; the “Solvent solubility, Butyl acetate” value amounted to 10 wt %; the “Solvent solubility, Toluene” value is listed as 10 wt %.
Take `COc1cc2c(OC)cccc2cc1C(=O)N(C)OS(C)(=O)=O` [A-4]: the Molar extinction coefficient in data set [1] is 300 L/mol/cm. Besides, in data set [2], the Thermal decomposition temperature is 225 °C. Besides, in “Solvent solubility”, the “Solvent solubility, PGMEA” value came out at 20 wt %; the “Solvent solubility, Butyl acetate” value stood at 20 wt %; the “Solvent solubility, Toluene” value stood at 10 wt %.
On to `CN(OS(=O)(=O)CC12CCC(CC1=O)C2(C)C)C(=O)c1ccc2ccccc2c1` (stereo not shown) [A-1], for which the Molar extinction coefficient in data set [1] was determined as 80 L/mol/cm. The Thermal decomposition temperature in data set [2] stood at 230 °C. Moreover, in the data set “Solvent solubility”, the “Solvent solubility, PGMEA” value amounted to 20 wt %; the “Solvent solubility, Butyl acetate” value worked out at 20 wt %; the “Solvent solubility, Toluene” value was 12 wt %.
As to `COc1ccc2cc(C(=O)N(C)OS(=O)(=O)CC34CCC(CC3=O)C4(C)C)c(=O)oc2c1` (stereo not shown) [A-7], the Molar extinction coefficient in data set [1] is 6500 L/mol/cm. In data set [2], this compound returned a Thermal decomposition temperature of 220 °C. For the same compound, in “Solvent solubility”, the “Solvent solubility, PGMEA” value was 15 wt %; the “Solvent solubility, Butyl acetate” value came to 15 wt %; the “Solvent solubility, Toluene” value stood at 10 wt %.
With `CN(OS(=O)(=O)CC12CCC(CC1=O)C2(C)C)C(=O)c1c2ccccc2cc2ccccc12` (stereo not shown) [A-8], in data set [1], the Molar extinction coefficient worked out at 9000 L/mol/cm. In data set [2], this compound came in with a Thermal decomposition temperature of 240 °C. Further, in the data set “Solvent solubility”, the “Solvent solubility, PGMEA” value turned out to be 5 wt %; the “Solvent solubility, Butyl acetate” value is given as 5 wt %; the “Solvent solubility, Toluene” value was found to be 10 wt %.
On to `COc1cc2c(OC)cccc2cc1C(=O)N(C)OS(=O)(=O)CC12CCC(CC1=O)C2(C)C` (stereo not shown) [A-3], for which the Molar extinction coefficient in data set [1] worked out at 360 L/mol/cm. In addition, the Thermal decomposition temperature in data set [2] stood at 225 °C. For the same compound, in the data set “Solvent solubility”, the “Solvent solubility, PGMEA” value amounted to 15 wt %; the “Solvent solubility, Butyl acetate” value was determined as 15 wt %; the “Solvent solubility, Toluene” value was 10 wt %.
As for `CC(=O)c1ccc(Sc2ccc(C(=O)N(C)OS(=O)(=O)CC34CCC(CC3=O)C4(C)C)cc2)cc1` (stereo not shown) [A-6], in data set [1], the Molar extinction coefficient was 450 L/mol/cm. In data set [2], this compound had a Thermal decomposition temperature of 210 °C. Further, in the data set “Solvent solubility”, the “Solvent solubility, PGMEA” value stood at 15 wt %; the “Solvent solubility, Butyl acetate” value is 15 wt %; the “Solvent solubility, Toluene” value is on record as 10 wt %.
`CC1(C)C2CCC1(CS(=O)(=O)OC1C(=O)c3cccc4cccc(c34)C1=O)C(=O)C2` (stereo not shown) [A′-1, reference compound]: in data set [1], the Molar extinction coefficient is 330 L/mol/cm. Further, the Thermal decomposition temperature in data set [2] was 225 °C. Also, in the data set “Solvent solubility”, the “Solvent solubility, PGMEA” value was determined as 0.5 wt %; the “Solvent solubility, Butyl acetate” value is given as 1 wt %; the “Solvent solubility, Toluene” value is reported as 0.5 wt %. In “Solvent solubility” (summary of Table 1), the “solubility to a solvent (in words)” value is reported as “insufficient”.
Consider `COc1ccc2cc(C(=O)N(C)OS(=O)(=O)CC34CCC(CC3=O)C4(C)C)ccc2c1` (stereo not shown) [A-2], for which the Molar extinction coefficient in data set [1] stood at 120 L/mol/cm. In data set [2], this compound registered a Thermal decomposition temperature of 225 °C. Besides, in “Solvent solubility”, the “Solvent solubility, PGMEA” value was 15 wt %; the “Solvent solubility, Butyl acetate” value is on record as 15 wt %; the “Solvent solubility, Toluene” value turned out to be 10 wt %.
